pIC50: −log10 of the molar value.
How the values were obtained:
[1] = test system: human multiple myeloma cells (MM.1S); assay: Anti-proliferation assay (ATPLite, 72 h); format: cell-based; set-up: key to synergy score / synergy (score), PDEi × HE-NECA: S = lnfX·lnfY·ΣIdata(Idata−ILoewe), volume over Loewe additivity
Description: (§1) ANBL6 and INA-6 culture media was also supplemented with 10 ng/ml IL-6. […] MM.1S, MM.1R, OCI-ly10, Karpas 422, and SU-DHL6 cells were provided by the Dana Farber Cancer Institute. H929, RPMI-8226, GA-10, and Farage cells were from ATCC (Cat #'s CCL-155, CRL-9068, CRL-2392 and CRL-2630 respectively). MOLP-8, EJM, KSM-12-PE, and OPM2 were from DSMZ. The ANBL6 and INA-6 cell lines were provided by the M. D. Anderson Cancer Research Center. Compounds were prepared in DMSO at 1000× the highest desired concentration. Master plates were generated consisting of serially diluted compounds in 2- or 3-fold dilutions in 384-well format. For single agent dose response curves, the master plates consisted of 9 individual compounds at 12 concentrations in 2- or 3-fold dilutions. For combination matrices, master plates consisted of individual compounds at 6 or 9 concentrations at 2- or 3-fold dilutions. […] To obtain combination data, two master plates were diluted into the assay plates. […] Thirty microliters of ATPLite (Perkin Elmer) at room temperature was then added to each well. […] Measurements were taken at the top of the well using a luminescence aperture and a read time of 0.1 seconds per well. The percent inhibition (% I) for each well was calculated using the following formula: % I=[(avg. untreated wells-treated well)/(avg. untreated wells)]×100. […] Negative inhibition values result from local variations in treated wells as compared to untreated wells. […] The uncertainty of each fitted parameter was estimated from the range over which the change in reduced chi-squared was less than one, or less than minimum reduced chi-squared if that minimum exceeded one, to allow for underestimated σI errors. Single agent curve data were used to define a dilution series for each compound to be used for combination screening in a 6×6 matrix format. […] The Loewe additivity model was used to quantify combination effects. […] A “Synergy Score” was also used, where the Synergy Score S=log fX log fY ΣIdata(Idata-ILoewe), summed over all non-single-agent concentration pairs, and where log fX,Y is the natural logarithm of the dilution factors used for each single agent. This effectively calculates a volume between the measured and Loewe additive response surfaces, weighted towards high inhibition and corrected for varying dilution factors. An uncertainty σS was calculated for each synergy score, based on the measured errors for the Idata values and standard error propagation.

[2] = test system: H929 multiple myeloma cell line; assay: Anti-proliferation assay (ATPLite, 72 h); format: cell-based, human; set-up: key: S = lnfX·lnfY·ΣIdata(Idata−ILoewe), volume over Loewe additivity; details: H929
Description: as §1

[3] = PDE inhibitor crossed with (S) ENBA, MM.1S
[4] = PDE inhibitor crossed with Chloro-IB-MECA, MM.1S
[5] = PDE inhibitor crossed with HE-NECA, MM.1S
[6] = PDE inhibitor crossed with (S) ENBA
[7] = PDE inhibitor crossed with Chloro-IB-MECA
[8] = PDE inhibitor crossed with HE-NECA
[9] = MM.1S, compared among four adenosine receptor antagonists

SMILES: C[C@@H]1C[C@H]2[C@@H]3CCC4=CC(=O)C=C[C@]4(C)[C@@]3(F)[C@@H](O)C[C@]2(C)[C@@]1(O)C(=O)CO [dexamethasone]
- pIC50 ([1]; Homo sapiens, MM1.S, 72 h, MM.1S, 72 h, +IL-6 (10 ng/ml)): 7.21
- pIC50 ([1]; Homo sapiens, MM1.S, 72 h, MM.1S, no IL-6): 6.75
- change in IC50 when cultured in the presence of IL-6 ([1]; MM.1S, 10 ng/ml IL-6 vs no IL-6): 2.9 fold

SMILES: CNC(=O)[C@H]1O[C@@H](n2cnc3c(NCc4cccc(I)c4)nc(Cl)nc32)[C@H](O)[C@@H]1O.COc1cc2c(cc1OC)-c1cc(=Nc3c(C)cc(C)cc3C)n(C)c(=O)n1CC2 [Cl-IB-MECA + Trequinsin]
- percent inhibition of ATP in MM.1S cells ([1]; after addition of 170 nM MRS 1523, Cl-IB-MECA 2.96 μM, Trequinsin conc. (μM)): 93%

SMILES: CCCOc1ccccc1-c1nc2nn[nH]c2c(=O)[nH]1 [Zaprinast]
- synergy score [1, 3]: 0.16
- synergy score [1, 4]: 0.05
- synergy score [1, 5]: 0.025
- synergy score [2, 6]: 0.05
- synergy score [2, 7]: 0.03
- synergy score [2, 8]: 0.13

SMILES: CCCCC#Cc1nc(N)c2ncn([C@@H]3O[C@H](C(=O)NCC)[C@@H](O)[C@H]3O)c2n1.COc1ccc(Cc2nccc3cc(OC)c(OC)cc23)cc1OC [HE-NECA + Papaverine]
- percent inhibition of ATP in MM.1S cells ([1]; 10 ng/mL IL-6, Papaverine 20.7 μM, HE-NECA conc. (μM)): 97%
- percent inhibition of ATP in MM.1S cells ([1]; no IL-6, Papaverine 20.7 μM, HE-NECA conc. (nM)): 95%

SMILES: CCCCC#Cc1nc(N)c2ncn([C@@H]3O[C@H](C(=O)NCC)[C@@H](O)[C@H]3O)c2n1.COc1cc2c(cc1OC)-c1cc(=Nc3c(C)cc(C)cc3C)n(C)c(=O)n1CC2 [HE-NECA + Trequinsin]
- percent inhibition of ATP in MM.1S cells ([1]; 10 ng/mL IL-6, Trequinsin 3.39 μM, HE-NECA conc. (nM)): 94%
- percent inhibition of ATP in MM.1S cells ([1]; 10 ng/mL IL-6, Trequinsin 30.5 μM, HE-NECA conc. (nM)): 100%
- percent inhibition of ATP in MM.1S cells ([1]; no IL-6, Trequinsin 30.5 (unit not given), HE-NECA conc. (nM)): 98%

SMILES: Nc1nc2c(cnn2CCc2ccccc2)c2nc(-c3ccco3)nn12 [SCH 58261]
- blocking of chloro-IB-MECA antiproliferative activity ([1]; MM.1S, 72 h, antagonist SCH 58261 at 78 nM): > 50%
- antagonist effect on (S)-ENBA inhibition of cell growth ([1]; MM.1S, 72 h, SCH 58261 78 nM, MRS 1523 183 nM, DPCPX 178 nM, MRS 1574 175 nM): most active of the antagonists
- blocking of chloro-IB-MECA antiproliferative activity ([1]; MM.1S, antagonist concentration increased 2-fold): > 70%
- antagonist effect on chloro-IB-MECA crossed with trequinsin [1, 9]: most active compound
- antagonist effect on synergy of (S)-ENBA crossed with trequinsin [1, 9]: most active compound

SMILES: COc1cc2c(cc1OC)-c1cc(=Nc3c(C)cc(C)cc3C)n(C)c(=O)n1CC2.NCCNC(=O)Cc1ccc(NC(=O)Cc2ccc(Nc3ncnc4c3ncn4[C@@H]3O[C@H](CO)[C@@H](O)[C@H]3O)cc2)cc1 [ADAC + Trequinsin]
- percent inhibition of ATP in MM.1S cells ([1]; 10 ng/mL IL-6, ADAC 1.17 μM, Trequinsin conc. (μM)): 94%
- percent inhibition of ATP in MM.1S cells ([1]; 10 ng/mL IL-6, ADAC 3.51 μM, Trequinsin conc. (μM)): 93%
- percent inhibition of ATP in MM.1S cells ([1]; 10 ng/mL IL-6, ADAC 10.5 μM, Trequinsin conc. (μM)): 93%
- percent inhibition of ATP in MM.1S cells ([1]; 10 ng/mL IL-6, ADAC 31.6 μM, Trequinsin conc. (μM)): 93%
- percent inhibition of ATP in MM.1S cells ([1]; 10 ng/mL IL-6, ADAC […], Trequinsin conc. (μM)): 95%

SMILES: CCCc1nn(C)c2c(=O)[nH]c(-c3cc(S(=O)(=O)N4CCN(C)CC4)ccc3OCC)nc12 [Sildenafil]
- synergy score [1, 3]: 0
- synergy score ([1]; PDE inhibitor crossed with ADAC, MM.1S): 0
- synergy score [1, 4]: 0
- synergy score [1, 5]: 0
- synergy score [2, 6]: 0.03
- synergy score ([2]; PDE inhibitor crossed with ADAC): 0.14
- synergy score [2, 7]: 0.03
- synergy score [2, 8]: 0

SMILES: CCCn1c(=O)c2[nH]c(-c3ccc(OCC(=O)Nc4ccc(C#N)cc4)cc3)nc2n(CCC)c1=O [MRS 1574]
- inhibition at 0.175 µM ([1]; Homo sapiens, MM1.S, after addition of 175 nM MRS 1754, Cl-IB-MECA 0 μM, Trequinsin conc. (μM), read-out: Percent inhibition of ATP in MM.1S cells): -13%

SMILES: CNC(=O)[C@H]1O[C@@H](n2cnc3c(NCc4cccc(I)c4)nc(Cl)nc32)[C@H](O)[C@@H]1O.COc1cc2c(cc1OC)-c1cc(=Nc3c(C)cc(C)cc3C)n(C)c(=O)n1CC2 [CI-IB-MECA + Trequinsin]
- percent inhibition of ATP in MM.1S cells ([1]; after addition of 174 nM DPCPX, CI-IB-MECA 2.96 μM, Trequinsin conc. (μM)): 94%
- percent inhibition of ATP in MM.1S cells ([1]; no adenosine receptor antagonist added, CI-IB-MECA 1.48 μM, Trequinsin conc. (μM)): 93%

SMILES: CCCn1c(=O)c2[nH]c(C3CCCC3)nc2n(CCC)c1=O [DPCPX, 8-cyclopentyl-1,3-dipropylxanthine]
- inhibition at 0.174 µM ([1]; Homo sapiens, MM1.S, after addition of 174 nM DPCPX, CI-IB-MECA 0 μM, Trequinsin conc. (μM), read-out: Percent inhibition of ATP in MM.1S cells): -7.5%

— US20090047243A1, “COMBINATIONS FOR THE TREATMENT OF B-CELL PROLIFERATIVE DISORDERS” (priority 2007, published 2009)
